The values that follow come from publication doi:10.1101/2025.05.09.653172, “Alternative Splicing in TRPA1 Drives Sensory Adaptation to Electrophiles in Drosophilids” (bioRxiv, 2025).

Common to all, as to experiment: two-electrode voltage clamp, Xenopus oocytes, heat-normalized AITC-evoked current
For orientation: Two-electrode voltage clamp is typically applied to oocytes expressing channels or transporters.

One assay addresses T1, DmTRPA1-D (Drosophila melanogaster, UniProt H0USS9).
T1 construct: gene TrpA1; full CDS of splice isoform D (cDNA gift from Marco Gallio lab) in pOX(+), cRNA-injected Xenopus laevis oocytes
T1 sequence (H0USS9 1-1231): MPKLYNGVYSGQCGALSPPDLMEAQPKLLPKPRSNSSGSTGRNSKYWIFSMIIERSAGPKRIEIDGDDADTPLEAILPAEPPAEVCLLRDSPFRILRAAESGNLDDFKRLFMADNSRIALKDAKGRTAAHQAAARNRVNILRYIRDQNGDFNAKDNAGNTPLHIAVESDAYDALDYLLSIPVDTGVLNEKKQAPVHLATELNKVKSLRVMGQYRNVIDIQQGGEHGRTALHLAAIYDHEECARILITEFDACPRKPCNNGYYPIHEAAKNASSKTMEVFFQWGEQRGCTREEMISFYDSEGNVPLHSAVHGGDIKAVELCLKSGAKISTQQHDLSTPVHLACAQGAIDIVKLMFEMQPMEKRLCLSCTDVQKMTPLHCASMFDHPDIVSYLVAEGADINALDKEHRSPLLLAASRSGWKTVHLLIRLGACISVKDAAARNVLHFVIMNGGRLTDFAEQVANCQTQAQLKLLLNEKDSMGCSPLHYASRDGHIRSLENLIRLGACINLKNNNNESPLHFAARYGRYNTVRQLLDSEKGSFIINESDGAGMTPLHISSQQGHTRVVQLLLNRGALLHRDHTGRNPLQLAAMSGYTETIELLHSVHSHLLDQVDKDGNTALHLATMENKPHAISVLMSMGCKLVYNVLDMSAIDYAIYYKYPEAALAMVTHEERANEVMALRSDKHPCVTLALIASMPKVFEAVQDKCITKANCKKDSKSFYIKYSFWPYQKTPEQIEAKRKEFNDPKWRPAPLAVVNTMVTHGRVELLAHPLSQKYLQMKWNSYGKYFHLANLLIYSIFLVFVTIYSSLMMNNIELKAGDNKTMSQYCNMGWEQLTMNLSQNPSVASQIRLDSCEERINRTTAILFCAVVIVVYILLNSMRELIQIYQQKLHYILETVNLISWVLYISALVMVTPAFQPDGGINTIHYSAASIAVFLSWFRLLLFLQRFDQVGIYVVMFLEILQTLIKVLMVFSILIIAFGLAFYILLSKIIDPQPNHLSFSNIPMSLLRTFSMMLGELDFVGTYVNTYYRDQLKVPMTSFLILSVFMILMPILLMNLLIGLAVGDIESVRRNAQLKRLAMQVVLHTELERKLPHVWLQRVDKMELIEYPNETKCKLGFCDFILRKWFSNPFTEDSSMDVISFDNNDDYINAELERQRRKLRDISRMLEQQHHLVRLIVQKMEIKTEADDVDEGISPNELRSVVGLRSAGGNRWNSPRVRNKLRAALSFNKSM
The format is cell-based. The settings on record: read-out: TRPA1-DL / DmTRPA1-D. The text has this: two-electrode voltage clamp, Xenopus oocytes, heat-normalized AITC-evoked current on DmTRPA1-D

A further assay relates to T2, SfTRPA1-CL.
T2 construct: gene TrpA1; full CDS of splice isoform CL (artificial synthesis, Genscript) in pOX(+), cRNA-injected Xenopus laevis oocytes
The class given is cell-based, Scaptomyza flava. The settings on record: agonist (electrophile); ND96 pH 7.4, -60 mV; after prior heat stimulus (>40 °C); read-out: TRPA1-CL / SfTRPA1-CL. The source says:
two-electrode voltage clamp, Xenopus oocytes, heat-normalized AITC-evoked current on SfTRPA1-CL

In a further assay the test system is T3, SpTRPA1-DL.
T3 construct: gene TrpA1; full CDS of splice isoform DL (cDNA from adult tarsi) in pOX(+), cRNA-injected Xenopus laevis oocytes
The class given is cell-based, Scaptomyza pallida. As to conditions: agonist (electrophile); ND96 pH 7.4, -60 mV; after prior heat stimulus (>40 °C); read-out: TRPA1-DL / SpTRPA1-DL. The source says:
two-electrode voltage clamp, Xenopus oocytes, heat-normalized AITC-evoked current on SpTRPA1-DL

The subject of the next assay is T4, SpTRPA1-CL.
T4 construct: gene TrpA1; full CDS of splice isoform CL (cDNA from adult labella) in pOX(+), cRNA-injected Xenopus laevis oocytes
The class given is cell-based, Scaptomyza pallida. As to conditions: agonist (electrophile); ND96 pH 7.4, -60 mV; after prior heat stimulus (>40 °C); read-out: TRPA1-CL / SpTRPA1-CL. The text has this:
two-electrode voltage clamp, Xenopus oocytes, heat-normalized AITC-evoked current on SpTRPA1-CL

The subject of another assay is T5, SfTRPA1-DL.
T5 construct: gene TrpA1; full CDS of splice isoform DL (artificial synthesis, Genscript) in pOX(+), cRNA-injected Xenopus laevis oocytes
The class given is cell-based, Scaptomyza flava. As to conditions: agonist (electrophile); ND96 pH 7.4, -60 mV; after prior heat stimulus (>40 °C); read-out: TRPA1-DL / SfTRPA1-DL. The text has this:
two-electrode voltage clamp, Xenopus oocytes, heat-normalized AITC-evoked current on SfTRPA1-DL

For a further assay, the target named is T6, DmTRPA1-C (Drosophila melanogaster, UniProt G8IQ59).
T6 construct: gene TrpA1; full CDS of splice isoform C (cDNA from third-instar larva whole body) in pOX(+), cRNA-injected Xenopus laevis oocytes
T6 sequence (G8IQ59 1-1232): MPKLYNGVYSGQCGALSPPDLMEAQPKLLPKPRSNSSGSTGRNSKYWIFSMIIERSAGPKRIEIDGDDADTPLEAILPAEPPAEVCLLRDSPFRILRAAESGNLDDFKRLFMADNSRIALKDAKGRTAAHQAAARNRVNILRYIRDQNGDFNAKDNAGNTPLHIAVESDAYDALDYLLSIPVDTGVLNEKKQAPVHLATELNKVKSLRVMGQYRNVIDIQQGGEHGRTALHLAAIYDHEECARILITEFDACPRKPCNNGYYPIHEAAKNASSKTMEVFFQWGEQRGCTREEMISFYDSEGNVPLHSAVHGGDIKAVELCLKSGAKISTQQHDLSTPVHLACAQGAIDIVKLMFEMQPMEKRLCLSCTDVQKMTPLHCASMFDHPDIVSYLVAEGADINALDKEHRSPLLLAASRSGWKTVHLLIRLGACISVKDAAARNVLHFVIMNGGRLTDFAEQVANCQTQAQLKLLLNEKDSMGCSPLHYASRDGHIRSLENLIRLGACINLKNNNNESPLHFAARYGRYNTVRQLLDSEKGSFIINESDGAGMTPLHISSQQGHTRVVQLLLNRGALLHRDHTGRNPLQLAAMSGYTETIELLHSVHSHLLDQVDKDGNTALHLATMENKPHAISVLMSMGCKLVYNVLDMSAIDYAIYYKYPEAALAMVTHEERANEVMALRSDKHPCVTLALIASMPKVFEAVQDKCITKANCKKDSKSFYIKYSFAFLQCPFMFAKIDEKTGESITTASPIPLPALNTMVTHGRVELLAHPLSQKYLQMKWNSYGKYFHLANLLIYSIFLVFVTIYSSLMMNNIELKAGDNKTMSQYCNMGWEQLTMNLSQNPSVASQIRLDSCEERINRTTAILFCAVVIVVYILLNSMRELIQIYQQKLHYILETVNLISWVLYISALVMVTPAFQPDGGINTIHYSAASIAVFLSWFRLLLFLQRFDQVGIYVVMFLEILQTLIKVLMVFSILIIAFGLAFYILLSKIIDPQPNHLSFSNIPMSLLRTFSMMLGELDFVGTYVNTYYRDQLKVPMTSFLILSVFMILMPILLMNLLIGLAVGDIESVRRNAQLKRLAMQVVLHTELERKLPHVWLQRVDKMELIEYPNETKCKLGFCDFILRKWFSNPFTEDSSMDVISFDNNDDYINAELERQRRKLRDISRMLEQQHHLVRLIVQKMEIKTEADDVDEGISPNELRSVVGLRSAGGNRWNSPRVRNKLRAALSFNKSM
The class given is cell-based. The settings on record: read-out: TRPA1-CL / DmTRPA1-C. The source says: two-electrode voltage clamp, Xenopus oocytes, heat-normalized AITC-evoked current on DmTRPA1-C

With `C=CCN=C=S` [allyl isothiocyanate], the EC50 came out at 341 ± 92 µM at DmTRPA1-D; 65 ± 55 µM with SfTRPA1-CL; 103 ± 15 µM in the assay with SpTRPA1-DL; 29 ± 15 µM in the assay on SpTRPA1-CL; 316 ± 31 µM in the assay with SfTRPA1-DL; 8.6 ± 4.3 µM on DmTRPA1-C.
